{"source": "patent US12606541B2", "about": "“PPARg modulators and methods of use” (Eisai R&D Management Co., Ltd., priority 2020, dated 2026)"}
{"molecular_target": "T1, His6-TEV-PPARγ-(234-505) (Homo sapiens, UniProt P37231)", "T1 construct": "The His6-TEV-PPARγ-(234-505) protein for assay was expressed and purified; TEV cleavage site (N); made in house", "T1 sequence (P37231 234-505)": "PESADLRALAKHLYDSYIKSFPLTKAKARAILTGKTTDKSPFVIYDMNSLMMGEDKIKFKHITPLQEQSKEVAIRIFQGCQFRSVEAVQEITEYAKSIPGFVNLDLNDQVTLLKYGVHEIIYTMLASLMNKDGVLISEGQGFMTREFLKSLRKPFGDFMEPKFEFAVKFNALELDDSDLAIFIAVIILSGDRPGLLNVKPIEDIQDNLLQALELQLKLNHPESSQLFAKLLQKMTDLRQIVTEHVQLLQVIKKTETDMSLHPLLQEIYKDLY", "test": "TR-FRET Assay to Measure Co-R Peptide Recruitment to PPARγ", "type": "biochemical", "conditions": "Co-R peptide (SMRT-ID2) recruitment; top final concentration 20 μM; read-out: TR-FRET i-Ag; AC50", "method": "(§1) TR-FRET Assay to Measure Co—R Peptide Recruitment to PPARγ\n(§2) The 2× detection solution contained anti-6×His-Terbium antibody (CisBio) and FITC labeled Co—R peptide (SMRT-ID2 from New England Peptide) at final concentrations of 5 and 200 nM respectively.\n(§3) In these assay plates, the positive control in column 24 contained 500 nM (final) T0070907 and the negative control in column 23 contained an identical volume of DMSO. Then, 5 μL of 2+ protein working stock or controls were added to the plate and incubated for 20 minutes at room temperature. Reagents additions were performed with either a Combi (Thermo) or Mantis (Formulatory) pipetting device. The incubation was followed by addition of 5 μL of the 2× detection solution. Plates were covered, centrifuged, and incubated for an additional hour. The TR-FRET data was recorded with an Envision plate reader (Perkin Elmer), using settings recommended by Thermo Fisher. The TR-FRET signal of the positive and negative control's recruitment of FITC-Co—R peptide was used to normalize the TR-FRET signal to percent response and to determine the assay Z prime. Experiments were performed in triplicate and analyzed in GraphPad Prism 7.", "units": {"AC50": "µM"}}
{"smiles": "CC1CCC(NC(=O)C2CCN(C(=O)c3cc(-c4ccncc4Cl)[nH]n3)CC2)CC1", "note": "(mixture of isomers) [Example 109, 1-(5-(3-chloropyridin-4-yl)-1H-pyrazole-3-carbonyl)-N-(4-methylcyclohexyl)piperidine-4-carboxamide]", "AC50": 0.373}
{"smiles": "COc1cc(-c2cc(C(=O)N3C(C)CC(C(=O)NCc4cccc(Cl)c4)CC3C)n[nH]2)c(Cl)cn1", "note": "(mixture of isomers) [Example 274, 1-(5-(5-chloro-2-methoxypyridin-4-yl)-1H-pyrazole-3-carbonyl)-N-(3-chlorobenzyl)-2,6-dimethylpiperidine-4-carboxamide]", "AC50": 0.02}
{"molecular_target": "T1, His6-TEV-PPARγ-(234-505)", "test": "TR-FRET Assay to Measure Co-R Peptide Recruitment to PPARγ", "type": "biochemical", "conditions": "Co-R peptide recruitment to PPARγ; read-out: TR-FRET AC50", "method": "as §1, §2, §3", "units": {"AC50": "µM"}}
{"smiles": "C[C@H]1CC[C@H](NC(=O)C2CCN(C(=O)c3cc(-c4cccnc4)n[nH]3)CC2)CC1", "AC50": "> 1"}
{"smiles": "CCC1CCC(NC(=O)C2CCN(C(=O)c3cc(-c4ccnc(OC)c4)[nH]n3)CC2)CC1", "note": "(stereo not drawn)", "AC50": "> 1"}
{"smiles": "COc1cc(-c2cc(C(=O)N3CCC(C(=O)N[C@H]4CC[C@H](C)CC4)CC3)n[nH]2)ccn1", "AC50": "> 1"}
{"smiles": "COc1cc(-c2cc(C(=O)N3CCC(C(=O)N[C@H]4CC[C@](O)(C(F)(F)F)CC4)CC3)n[nH]2)c(Cl)cn1", "AC50": "> 1"}
{"smiles": "COc1cc(-c2cc(C(=O)N3CCC(C(=O)NC4CCC(C)(O)CC4)CC3)n[nH]2)c(Cl)cn1", "note": "(stereo not drawn)", "AC50": "> 1"}
{"smiles": "COc1cc(-c2cc(C(=O)N3CCC(C(=O)NC45COC(C)(C4)C5)CC3)n[nH]2)c(Cl)cn1", "AC50": "> 1"}
{"smiles": "COc1cc(-c2cc(C(=O)N3CCC(C(=O)N[C@H]4CC[C@@](C)(O)CC4)CC3)n[nH]2)c(Cl)cn1", "AC50": "> 1"}
{"smiles": "COc1cc(-c2cc(C(=O)N3CCC(C(=O)NC(C)c4cnn(C)c4)CC3)n[nH]2)c(Cl)cn1", "note": "(stereo not drawn)", "AC50": "> 1"}
{"smiles": "COc1cc(-c2cc(C(=O)N3CCC(C(=O)NC45CCC(O)(CC4)C5)CC3)n[nH]2)c(F)cn1", "AC50": "> 1"}
{"smiles": "COc1cc(-c2cc(C(=O)N3CCC(C(=O)NC4CCC5(CCCN5)CC4)CC3)n[nH]2)c(F)cn1", "note": "(stereo not drawn)", "AC50": "> 1"}
{"smiles": "O=C(N[C@H]1CC[C@H](O)CC1)C1CCN(C(=O)c2cc(-c3ccncc3)[nH]n2)CC1", "AC50": "> 1"}
{"smiles": "C[C@H]1CC[C@H](NC(=O)C2CCN(C(=O)c3cc(-c4ccncc4)[nH]n3)CC2)CC1", "AC50": "> 1"}
{"smiles": "CCC1CCC(NC(=O)C2CCN(C(=O)c3cc(-c4ccncc4)[nH]n3)CC2)CC1", "note": "(stereo not drawn)", "AC50": "> 1"}
{"smiles": "O=C(NC1CCC(O)CC1)C1CCN(C(=O)c2cc(-c3ccncc3)[nH]n2)CC1", "note": "(stereo not drawn)", "AC50": "> 1"}
{"smiles": "N#C[C@H]1CC[C@@H](NC(=O)C2CCN(C(=O)c3cc(-c4ccncc4)[nH]n3)CC2)CC1", "AC50": "> 1"}
{"smiles": "C[C@H]1CC[C@@H](NC(=O)C2CCN(C(=O)c3cc(-c4ccncc4)[nH]n3)CC2)CC1", "AC50": "> 1"}
{"smiles": "CN1CCN(C(=O)C2CCN(C(=O)c3cc(-c4ccncc4)[nH]n3)CC2)CC1", "AC50": "> 1"}
{"smiles": "CN1CCCN(C(=O)C2CCN(C(=O)c3cc(-c4ccncc4)[nH]n3)CC2)CC1", "AC50": "> 1"}
{"smiles": "CC1CCC(NC(=O)C2CCN(C(=O)c3cc(-c4ccnc(C(=O)O)c4)[nH]n3)CC2)CC1", "note": "(stereo not drawn)", "AC50": "> 1"}
{"smiles": "O=C(N[C@H]1CC[C@@](O)(C(F)(F)F)CC1)C1CCN(C(=O)c2cc(-c3cc(OC4COC4)ncc3F)[nH]n2)C2(CC2)C1", "note": "(stereo partly drawn)", "AC50": "> 1"}
{"smiles": "COc1cc(-c2cc(C(=O)N3CC4CC3CC4C(=O)NC3CCC(O)(C(F)(F)F)CC3)n[nH]2)c(F)cn1", "note": "(stereo not drawn)", "AC50": "> 1"}
{"smiles": "COc1cc(-c2cc(C(=O)N3C[C@@H]4[C@H](C3)[C@H]4C(=O)NCc3cccc(Cl)c3)n[nH]2)c(F)cn1", "AC50": "> 1"}
{"smiles": "COc1cc(-c2cc(C(=O)N3CC[C@H](CNC(=O)[C@H]4C[C@@H](C)N[C@@H](C)C4)CC34CC4)n[nH]2)c(F)cn1", "AC50": "> 1"}
{"smiles": "COc1cc(-c2cc(C(=O)N3CC[C@H](C(=O)NCC45CC(CN4CC(C)(C)F)C5)CC34CC4)n[nH]2)c(F)cn1", "AC50": "> 1"}
{"smiles": "COc1cc(-c2cc(C(=O)N3CC[C@H](C(=O)NC4CCS(=N)(=O)CC4)CC34CC4)n[nH]2)c(F)cn1", "note": "(stereo partly drawn)", "AC50": "> 1"}
{"smiles": "O=C(N[C@H]1CC[C@H](c2ccccc2)CC1)C1CCN(C(=O)c2cc(-c3ccncc3)[nH]n2)CC1", "AC50": "> 1"}
{"smiles": "COc1cc(-c2cc(C(=O)N3CC[C@@H](C(=O)NC4CC[C@H](C(F)(F)F)N(C)C4)CC34CC4)n[nH]2)c(F)cn1", "note": "(mixture of isomers) [(7R)-4-[5-(5-fluoro-2-methoxypyridin-4-yl)-1H-pyrazole-3-carbonyl]-N-[(3RS,6R)-1-methyl-6-(trifluoromethyl)piperidin-3-yl]-4-azaspiro[2.5]octane-7-carboxamide]", "AC50": "> 1"}
{"smiles": "COc1cc(-c2cc(C(=O)N3C[C@H]4CC[C@@H]3CC4C(=O)NCc3cccc(Cl)c3)n[nH]2)c(F)cn1", "note": "(relative stereo) [(1R,4S,5R*)—N-[(3-chlorophenyl)methyl]-2-[5-(5-fluoro-2-methoxypyridin-4-yl)-1H-pyrazole-3-carbonyl]-2-azabicyclo[2.2.2]octane-5-carboxamide]", "AC50": "> 1"}
{"smiles": "COc1cc(-c2cc(C(=O)N3C[C@@H]4C[C@H]3CC4C(=O)NCc3cccc(Cl)c3)n[nH]2)c(F)cn1", "note": "(relative stereo) [(1S,4R,5R*)—N-[(3-chlorophenyl)methyl]-2-[5-(5-fluoro-2-methoxypyridin-4-yl)-1H-pyrazole-3-carbonyl]-2-azabicyclo[2.2.1]heptane-5-carboxamide]", "AC50": "> 1"}
{"smiles": "COc1cc(-c2cc(C(=O)N3CCC(C(=O)NC4CC[C@H]5[C@H](CCN5C)C4)CC34CC4)n[nH]2)c(F)cn1", "note": "(relative stereo) [(7R*)—N-[(3aR,7aS)-1-methyl-octahydro-1H-indol-5-yl]-4-[5-(5-fluoro-2-methoxypyridin-4-yl)-1H-pyrazole-3-carbonyl]-4-azaspiro[2.5]octane-7-carboxamide]", "AC50": "> 1"}
{"smiles": "COc1cc(-c2cc(C(=O)N3CC[C@@]4(C(=O)NCc5cccc(Cl)c5)C[C@@H]34)n[nH]2)c(Cl)cn1", "note": "(relative stereo) [rel-(1R,5R)-2-[5-(5-chloro-2-methoxypyridin-4-yl)-1H-pyrazole-3-carbonyl]-N-[(3-chlorophenyl)methyl]-2-azabicyclo[3.1.0]hexane-5-carboxamide]", "AC50": "> 1"}
{"smiles": "CCOc1cc(-c2cc(C(=O)N3CCC(C(=O)N[C@H]4CC[C@@](O)(C(F)(F)F)CC4)CC34CC4)n[nH]2)c(F)cn1", "note": "(single isomer, unassigned)", "AC50": "> 1"}
{"smiles": "COc1cc(-c2cc(C(=O)N3C[C@H]4C[C@@H]3CC4C(=O)N[C@H]3CC[C@@](O)(C(F)(F)F)CC3)n[nH]2)c(F)cn1", "note": "(single isomer, unassigned)", "AC50": "> 1"}
{"smiles": "CCOc1cc(-c2cc(C(=O)N3CCC(C(=O)N[C@H]4CC[C@@](OC)(C(F)(F)F)CC4)CC34CC4)n[nH]2)c(F)cn1", "note": "(single isomer, unassigned)", "AC50": "> 1"}
{"smiles": "Cc1cc(-c2cc(C(=O)N3CCC(C(=O)N[C@H]4CC[C@@](O)(C(F)(F)F)CC4)CC34CC4)n[nH]2)c([C@@H](C)O)cn1", "note": "(single isomer, unassigned)", "AC50": "> 1"}
{"smiles": "Cc1cc(-c2cc(C(=O)N3CCC(C(=O)N[C@H]4CC[C@@](O)(C(F)(F)F)CC4)CC34CC4)n[nH]2)c([C@H](C)O)cn1", "note": "(single isomer, unassigned)", "AC50": "> 1"}
{"smiles": "CC(C)Oc1cc(-c2cc(C(=O)N3CCC(C(=O)N[C@H]4CC[C@@](O)(C(F)(F)F)CC4)CC34CC4)n[nH]2)c(F)cn1", "note": "(single isomer, unassigned)", "AC50": "> 1"}
{"smiles": "COc1cc(-c2cc(C(=O)N3CCC(C(=O)N[C@H]4CC[C@@]5(CCO5)CC4)CC34CC4)n[nH]2)c(F)cn1", "note": "(single isomer, unassigned)", "AC50": "> 1"}
{"smiles": "CS(=O)(=O)CCN1CCN(C(=O)C2CCN(C(=O)c3cc(-c4ccncc4)[nH]n3)CC2)CC1", "note": "[1-(2-methanesulfonylethyl)-4-{1-[5-(pyridin-4-yl)-1H-pyrazole-3-carbonyl]piperidine-4-carbonyl}piperazine]", "AC50": "> 1"}
{"smiles": "CC1CCC(NC(=O)C2CCN(C(=O)c3cc(-c4ccnc(C#N)c4)[nH]n3)CC2)CC1", "note": "(stereo not drawn) [1-[5-(2-cyanopyridin-4-yl)-1H-pyrazole-3-carbonyl]-N-(4-methylcyclohexyl)piperidine-4-carboxamide]", "AC50": "> 1"}
{"smiles": "CC1CCC(NC(=O)C2CCN(C(=O)c3cc(-c4ccnc(OC5CC5)c4)[nH]n3)CC2)CC1", "note": "(stereo not drawn) [1-[5-(2-cyclopropoxypyridin-4-yl)-1H-pyrazole-3-carbonyl]-N-(4-methylcyclohexyl)piperidine-4-carboxamide]", "AC50": "> 1"}
{"smiles": "CC1CCC(NC(=O)C2CCN(C(=O)c3cc(-c4ccnc(C5CC5)c4)[nH]n3)CC2)CC1", "note": "(stereo not drawn) [1-[5-(2-cyclopropylpyridin-4-yl)-1H-pyrazole-3-carbonyl]-N-(4-methylcyclohexyl)piperidine-4-carboxamide]", "AC50": "> 1"}
{"smiles": "COc1nccc(-c2cc(C(=O)N3CCC(C(=O)NC4CCC(C)CC4)CC3)n[nH]2)c1C", "note": "(stereo not drawn) [1-[5-(2-methoxy-3-methylpyridin-4-yl)-1H-pyrazole-3-carbonyl]-N-(4-methylcyclohexyl)piperidine-4-carboxamide]", "AC50": "> 1"}
